The values that follow come from ChEMBL document CHEMBL1148143, “Globulixanthones A and B, two new cytotoxic xanthones with isoprenoid groups from the root bark of Symphonia globulifera” (J Nat Prod, 2002).

In brackets after ≈: the same amount, converted by molar mass.

The IC50 is the concentration at which inhibition is half-maximal. High values mean weaker potency, low ones greater potency.

This test relates to KB. Description: Cytotoxicity against human KB cells. Type of test: functional, cell-based.

`C=C(C)/C=C/c1cc2c(=O)c3c(O)cccc3oc2c(OC)c1O` [GLOBULIXANTHONE A] had an IC50 of 2.15 µg/mL (≈ 6.63 µM).
`CC(C)=CCCC1(C)C=Cc2c(cc(O)c3oc4cccc(O)c4c(=O)c23)O1` (configuration not stated) [GLOBULIXANTHONE B] yielded an IC50 of 1.78 µg/mL (≈ 4.7 µM).
